Read-outs that look alike come from different tables or passages of the source.
How the values were obtained:
[1] = cited from earlier work
[2] = aqueous solution; cited from earlier work
L. monocytogenes = assay: Microbial growth/survival of L. monocytogenes in frankfurter samples; format: cell-based; conditions: equal dosage levels, storage 5° C., no nitrites
Procedure: No nitrites were added to the samples. […] The frankfurters were subject to sensory testing.

[3] = tested on: B. cereus and B. subtilis; assay: Bacillus spp. counts in inoculated bread post baking; format: cell-based; conditions: salt level 1.2% w/w, immediately post baking and after cooling
Procedure: (§1) A salt sample according to Example 7 of the invention was used to test the microbial growth in bread. […] Inoculated and uninoculated loaves (controls) were microbiologically analyzed over 6 days storage at 21° C. and 25° C. Analysis was carried out on day 0 (post baking and after cooling), day 1, day 2 and day 6. The results highlighted two main differences between the two salt types.

[4] = tested on: total aerobic viable counts; assay: Total aerobic viable counts in un-inoculated control bread during storage; format: cell-based; conditions: end of storage (Day 6), both storage temperatures (21° C. and 25° C.)
Procedure: as §1, with “Analysis was carried out on day 0 (post baking and after cooling), day 1, day 2 and day 6.” left out

Q: With `[Cl-].[K+]` [KCl, potassium chloride] as the molecule, how does the Aqueous solubility ([1]; Temperature 0 °C) read?
A: The Aqueous solubility was 21.74 mass-% of solute.

Q: What about the Aqueous solubility ([1]; Temperature 20 °C) of the same molecule?
A: The Aqueous solubility was 25.39 mass-% of solute.

Q: What about the Aqueous solubility ([1]; Temperature 40 °C) of the same molecule?
A: The Aqueous solubility was 28.59 mass-% of solute.

Q: What about the Aqueous solubility ([1]; Temperature 60 °C) of the same molecule?
A: The Aqueous solubility was 31.40 mass-% of solute.

Q: What about the Aqueous solubility ([1]; Temperature 80 °C) of the same molecule?
A: The Aqueous solubility was 33.86 mass-% of solute.

Q: And the Aqueous solubility ([1]; Temperature 100 °C)?
A: Its Aqueous solubility is 36.05 mass-% of solute.

Q: Which stability constant [2] does the source give for `[Cl-].[Cl-].[Mg+2]` [MgCl2, magnesium chloride] here?
A: Its stability constant is “zero”.

Q: Which “storage time until increase of L. monocytogenes to a count of 4 Log” value (L. monocytogenes) does the source give for `[Cl-].[Na+]` [NaCl, sodium chloride] here?
A: Its value is 23 days.

Q: What about the “log drop in Bacillus spp. counts” value [3] of the same molecule?
A: The value was “up to 3.4 Log”.

Q: And the “total aerobic viable counts” value [4]?
A: Its value is 10^4-10^5 cfu/g.

— patent US20160058060A1, “FOOD SALT PRODUCT” (SMART SALT INC, priority 2013, published 2016)
